Data as given in US10780090B2, “Heteroaryl compounds useful as inhibitors of SUMO activating enzyme” (Millennium Pharmaceuticals, Inc., priority 2014, dated 2020).

Biological target: recombinant human SAE enzyme (Homo sapiens (Human), UniProt Q9UBT2)
Assay: SAE HTRF enzyme assay
Assay type: biochemical
Procedure, shortened: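 Human SAE (0.11 nM) with 0.5 μM ATP, 0.125 μM Sumo-Flag and 0.01 μM Ubc9-GST in HEPES pH 7.5, 5 mM MgCl2, 250 μM GSH; 105 min at 24 °C. Stopped with EDTA; HTRF read after 2 h with Eu-anti-Flag and APC-anti-GST. Percent inhibition or IC50 reported.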

Sequence of recombinant human SAE enzyme (Q9UBT2 whole entry): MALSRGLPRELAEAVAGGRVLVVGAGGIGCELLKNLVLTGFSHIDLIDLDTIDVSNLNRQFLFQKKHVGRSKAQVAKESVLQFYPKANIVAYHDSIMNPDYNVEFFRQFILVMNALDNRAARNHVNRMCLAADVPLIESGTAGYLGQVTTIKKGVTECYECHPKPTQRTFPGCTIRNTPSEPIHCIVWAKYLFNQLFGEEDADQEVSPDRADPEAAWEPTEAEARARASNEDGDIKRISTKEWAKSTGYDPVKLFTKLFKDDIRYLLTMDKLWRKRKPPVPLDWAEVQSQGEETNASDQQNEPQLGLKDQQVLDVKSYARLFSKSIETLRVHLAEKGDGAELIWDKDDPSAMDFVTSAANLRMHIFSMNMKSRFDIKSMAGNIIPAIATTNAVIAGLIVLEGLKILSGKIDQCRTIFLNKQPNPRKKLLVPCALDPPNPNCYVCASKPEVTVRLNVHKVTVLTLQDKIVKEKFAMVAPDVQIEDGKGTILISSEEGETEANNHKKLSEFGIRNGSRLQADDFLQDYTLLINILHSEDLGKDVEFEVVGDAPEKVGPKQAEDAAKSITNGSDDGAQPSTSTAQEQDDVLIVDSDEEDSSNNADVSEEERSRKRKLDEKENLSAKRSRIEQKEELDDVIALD
Sequence of recombinant human SAE enzyme (Q9UBE0 whole entry partner): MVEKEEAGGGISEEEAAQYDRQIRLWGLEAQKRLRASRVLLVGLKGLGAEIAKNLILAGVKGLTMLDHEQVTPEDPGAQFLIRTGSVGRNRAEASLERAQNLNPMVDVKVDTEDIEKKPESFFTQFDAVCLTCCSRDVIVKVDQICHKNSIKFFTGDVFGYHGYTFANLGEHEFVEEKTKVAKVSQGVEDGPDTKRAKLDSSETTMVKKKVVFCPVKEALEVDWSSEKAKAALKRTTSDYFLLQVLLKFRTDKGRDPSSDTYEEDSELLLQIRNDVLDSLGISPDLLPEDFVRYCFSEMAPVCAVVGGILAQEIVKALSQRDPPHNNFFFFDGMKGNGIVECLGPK

Structure (SMILES) | Percent Inhibition (SAE inhibition at compound concentration 0.111 μM) [%] | IC50 (SAE inhibition, class symbols, legend in nM) [nM] | Percent Inhibition (Concentration 0.111 μM) | IC50 (class symbols A/B/C) [nM]
Cc1sc(C(=O)c2cncnc2N[C@@H]2C[C@H](COS(N)(=O)=O)[C@@H](O)C2)cc1[C@H]1SCc2ccc(Cl)cc21 (racemic) [I-359b, [(1RS,2SR,4RS)-4-[5-[4-[(1S)-6-chloro-1,3-dihydro-2-benzothiophene-1-yl]-5-methyl-thiophene-2-carbonyl]pyrimidin-4-yl]amino]-2-hydroxy-cyclopentyl]methyl sulfamate] | 95 | < 10 | – | –
C[C@](O)(c1csc(C(=O)c2cncnc2N[C@@H]2C[C@H](COS(N)(=O)=O)[C@@H](O)[C@H]2O)c1)c1cccc(Br)n1 (single isomer, unassigned) [I-1a, [(1R,2R,3S,4R)-4-{[5-({4-[(1S)-1-(6-bromopyridin-2-yl)-1-hydroxyethyl]-2-thienyl}carbonyl)pyrimidin-4-yl]amino}-2,3-dihydroxycyclopentyl]methyl sulfamate or [(1R,2R,3S,4R)-4-{[5-({4-[(1R)-1-(6-bromopyridin-2-yl)-1-hydroxyethyl]-2-thienyl}carbonyl)pyrimidin-4-yl]amino}-2,3-dihydroxycyclopentyl]methyl sulfamate] | – | – | 96 | < 10
C[C@](O)(c1csc(C(=O)c2cncnc2N[C@@H]2C[C@H](COS(N)(=O)=O)[C@@H](O)[C@H]2O)c1)c1cccc(Br)n1 (single isomer, unassigned) [I-1b, [(1R,2R,3S,4R)-4-{[5-({4-[(1S)-1-(6-bromopyridin-2-yl)-1-hydroxyethyl]-2-thienyl}carbonyl)pyrimidin-4-yl]amino}-2,3-dihydroxycyclopentyl]methyl sulfamate or [(1R,2R,3S,4R)-4-{[5-({4-[(1R)-1-(6-bromopyridin-2-yl)-1-hydroxyethyl]-2-thienyl}carbonyl)pyrimidin-4-yl]amino}-2,3-dihydroxycyclopentyl]methyl sulfamate] | – | – | 100 | < 10
NS(=O)(=O)OC[C@H]1C[C@@H](Nc2ncncc2C(=O)c2cc([C@H](O)c3cccc(Cl)n3)c(Cl)s2)C[C@@H]1O (single isomer, unassigned) [I-2a, [(1R,2S,4R)-4-{[5-({5-chloro-4-[(S)-(6-chloropyridin-2-yl)(hydroxy)methyl]-2-thienyl}carbonyl)pyrimidin-4-yl]amino}-2-hydroxycyclopentyl]methyl sulfamate or [(1R,2S,4R)-4-{[5-({5-chloro-4-[(R)-(6-chloropyridin-2-yl)(hydroxy)methyl]-2-thienyl}carbonyl)pyrimidin-4-yl]amino}-2-hydroxycyclopentyl]methyl sulfamate] | – | – | 99 | < 10
NS(=O)(=O)OC[C@H]1C[C@@H](Nc2ncncc2C(=O)c2cc([C@H](O)c3cccc(Cl)n3)c(Cl)s2)C[C@@H]1O (single isomer, unassigned) [I-2b, [(1R,2S,4R)-4-{[5-({5-chloro-4-[(S)-(6-chloropyridin-2-yl)(hydroxy)methyl]-2-thienyl}carbonyl)pyrimidin-4-yl]amino}-2-hydroxycyclopentyl]methyl sulfamate or [(1R,2S,4R)-4-{[5-({5-chloro-4-[(R)-(6-chloropyridin-2-yl)(hydroxy)methyl]-2-thienyl}carbonyl)pyrimidin-4-yl]amino}-2-hydroxycyclopentyl]methyl sulfamate] | – | – | 61 | 10 to 100
CC(O)(c1cccc(Br)c1)c1csc(C(=O)c2cncnc2N[C@@H]2C[C@H](COS(N)(=O)=O)[C@@H](O)C2)c1 (single isomer, unassigned) [I-3a, [(1R,2S,4R)-4-{[5-({4-[(1R)-1-(3-bromophenyl)-1-hydroxyethyl]-2-thienyl}carbonyl)pyrimidin-4-yl]amino}-2-hydroxycyclopentyl]methyl sulfamate or [(1R,2S,4R)-4-{[5-({4-[(1S)-1-(3-bromophenyl)-1-hydroxyethyl]-2-thienyl}carbonyl)pyrimidin-4-yl]amino}-2-hydroxycyclopentyl]methyl sulfamate] | – | – | 92 | 10 to 100
CC(O)(c1cccc(Br)c1)c1csc(C(=O)c2cncnc2N[C@@H]2C[C@H](COS(N)(=O)=O)[C@@H](O)C2)c1 (single isomer, unassigned) [I-3b, [(1R,2S,4R)-4-{[5-({4-[(1R)-1-(3-bromophenyl)-1-hydroxyethyl]-2-thienyl}carbonyl)pyrimidin-4-yl]amino}-2-hydroxycyclopentyl]methyl sulfamate or [(1R,2S,4R)-4-{[5-({4-[(1S)-1-(3-bromophenyl)-1-hydroxyethyl]-2-thienyl}carbonyl)pyrimidin-4-yl]amino}-2-hydroxycyclopentyl]methyl sulfamate] | – | – | 100 | < 10
NS(=O)(=O)OC[C@H]1C[C@@H](Nc2ncncc2C(=O)c2cc([C@H](O)c3cccc(Cl)c3)cs2)C[C@@H]1O (single isomer, unassigned) [I-4a, [(1R,2S,4R)-4-{[5-({4-[(R)-(3-chlorophenyl)(hydroxy)methyl]-2-thienyl}carbonyl)pyrimidin-4-yl]amino}-2-hydroxycyclopentyl]methyl sulfamate or [(1R,2S,4R)-4-{[5-({4-[(S)-(3-chlorophenyl)(hydroxy)methyl]-2-thienyl}carbonyl)pyrimidin-4-yl]amino}-2-hydroxycyclopentyl]methyl sulfamate] | – | – | 99 | < 10
NS(=O)(=O)OC[C@H]1C[C@@H](Nc2ncncc2C(=O)c2cc([C@H](O)c3cccc(Cl)c3)cs2)C[C@@H]1O (single isomer, unassigned) [I-4b, [(1R,2S,4R)-4-{[5-({4-[(R)-(3-chlorophenyl)(hydroxy)methyl]-2-thienyl}carbonyl)pyrimidin-4-yl]amino}-2-hydroxycyclopentyl]methyl sulfamate or [(1R,2S,4R)-4-{[5-({4-[(S)-(3-chlorophenyl)(hydroxy)methyl]-2-thienyl}carbonyl)pyrimidin-4-yl]amino}-2-hydroxycyclopentyl]methyl sulfamate] | – | – | 100 | < 10
CC(O)(c1cccc(Cl)c1)c1csc(C(=O)c2cncnc2N[C@@H]2C[C@H](COS(N)(=O)=O)[C@@H](O)C2)c1 (single isomer, unassigned) [I-5a, [(1R,2S,4R)-4-{[5-({4-[(1R)-1-(3-chlorophenyl)-1-hydroxyethyl]-2-thienyl}carbonyl)pyrimidin-4-yl]amino}-2-hydroxycyclopentyl]methyl sulfamate or [(1R,2S,4R)-4-{[5-({4-[(1S)-1-(3-chlorophenyl)-1-hydroxyethyl]-2-thienyl}carbonyl)pyrimidin-4-yl]amino}-2-hydroxycyclopentyl]methyl sulfamate] | – | – | 86 | 10 to 100
CC(O)(c1cccc(Cl)c1)c1csc(C(=O)c2cncnc2N[C@@H]2C[C@H](COS(N)(=O)=O)[C@@H](O)C2)c1 (single isomer, unassigned) [I-5b, [(1R,2S,4R)-4-{[5-({4-[(1R)-1-(3-chlorophenyl)-1-hydroxyethyl]-2-thienyl}carbonyl)pyrimidin-4-yl]amino}-2-hydroxycyclopentyl]methyl sulfamate or [(1R,2S,4R)-4-{[5-({4-[(1S)-1-(3-chlorophenyl)-1-hydroxyethyl]-2-thienyl}carbonyl)pyrimidin-4-yl]amino}-2-hydroxycyclopentyl]methyl sulfamate] | – | – | 100 | < 10
Cc1sc(C(=O)c2cncnc2N[C@@H]2C[C@H](COS(N)(=O)=O)[C@@H](O)C2)cc1[C@H](N)c1cccc(Cl)c1 (single isomer, unassigned) [I-6a, [(1R,2S,4R)-4-{[5-({4-[(R)-amino(3-chlorophenyl)methyl]-5-methyl-2-thienyl}carbonyl)pyrimidin-4-yl]amino}-2-hydroxycyclopentyl]methyl sulfamate or [(1R,2S,4R)-4-{[5-({4-[(S)-amino(3-chlorophenyl)methyl]-5-methyl-2-thienyl}carbonyl)pyrimidin-4-yl]amino}-2-hydroxycyclopentyl]methyl sulfamate] | – | – | 98 | < 10
Cc1sc(C(=O)c2cncnc2N[C@@H]2C[C@H](COS(N)(=O)=O)[C@@H](O)C2)cc1[C@H](N)c1cccc(Cl)c1 (single isomer, unassigned) [I-6b, [(1R,2S,4R)-4-{[5-({4-[(R)-amino(3-chlorophenyl)methyl]-5-methyl-2-thienyl}carbonyl)pyrimidin-4-yl]amino}-2-hydroxycyclopentyl]methyl sulfamate or [(1R,2S,4R)-4-{[5-({4-[(S)-amino(3-chlorophenyl)methyl]-5-methyl-2-thienyl}carbonyl)pyrimidin-4-yl]amino}-2-hydroxycyclopentyl]methyl sulfamate] | – | – | 98 | < 10
COCc1sc(C(=O)c2cncnc2N[C@@H]2C[C@H](COS(N)(=O)=O)[C@@H](O)C2)cc1C(O)c1cccc(Cl)c1 (single isomer, unassigned) [I-7a, [(1R,2S,4R)-4-{[5-({4-[(R)-(3-chlorophenyl)(hydroxy)methyl]-5-(methoxymethyl)-2-thienyl}carbonyl)pyrimidin-4-yl]amino}-2-hydroxycyclopentyl]methyl sulfamate or [(1R,2S,4R)-4-{[5-({4-[(S)-(3-chlorophenyl)(hydroxy)methyl]-5-(methoxymethyl)-2-thienyl}carbonyl)pyrimidin-4-yl]amino}-2-hydroxycyclopentyl]methyl sulfamate] | – | – | 96 | < 10
